Experimental data published in US9388165B2, “Isoquinoline-5-carboxamide derivative having inhibitory activity for protein kinase” (HANMI PHARM. CO., LTD., priority 2012, dated 2016).
One block for each compound: values may come before it.

Key:
C-Raf = C-Raf (Homo sapiens (Human), UniProt P04049, Y340D/Y341D); test: Inhibitory activity against C-Raf kinase (Invitrogen Kinase Profiling Service); format: biochemical
Procedure: (§1) The compounds prepared in Examples were tested for inhibitory activities against three subtypes of RAF, i.e. RAF1 Y340D Y341D, BRAF normal type and BRAF V600E, using Kinase Profiling Service (Invitrogen) according to the manufacturer's instructions. The levels of the inhibitory activities of the compounds against the enzymes were calculated as % inhibitory activities at various concentrations. Based on the % inhibitory activities, dose-response curves were plotted and IC50 values were calculated using GraphPad Prism software.

CDK1 = CDK1 (Homo sapiens (Human), UniProt P06493); test: Kinase profiling, % inhibition at 1.0 μM; format: biochemical; conditions: compound 1.0 μM; read-out: Inhibitory activity at 1.0 μM (%), CDK1
CDK2 = CDK2 (Homo sapiens (Human), UniProt P24941); test: Kinase profiling, % inhibition at 1.0 μM; format: biochemical; conditions: compound 1.0 μM; read-out: Inhibitory activity at 1.0 μM (%), CDK2
PLK1 = PLK1 (Homo sapiens (Human), UniProt P53350); test: Kinase profiling, % inhibition at 1.0 μM; format: biochemical; conditions: compound 1.0 μM; read-out: Inhibitory activity at 1.0 μM (%), PLK1
Aurora B = Aurora B (Homo sapiens (Human), UniProt Q96GD4); test: Kinase profiling, % inhibition at 1.0 μM; format: biochemical; conditions: compound 1.0 μM; read-out: Inhibitory activity at 1.0 μM (%), Aurora B
Procedure: [The source words this procedure for another target and says it was used here with some conditions changed.] as §1

FGFR4 = FGFR4 (Homo sapiens (Human), UniProt P22455); test: Kinase profiling, % inhibition at 1.0 μM; format: biochemical; conditions: compound 1.0 μM; read-out: Inhibitory activity at 1.0 μM (%), FGFR4
Procedure: [The source words this procedure for another target and says it was used here with some conditions changed.] as §1

PLK2 = PLK2 (Homo sapiens (Human), UniProt Q9NYY3); test: Kinase profiling, % inhibition at 1.0 μM; format: biochemical; conditions: compound 1.0 μM; read-out: Inhibitory activity at 1.0 μM (%), PLK2
Procedure: [The source words this procedure for another target and says it was used here with some conditions changed.] as §1

PLK3 = PLK3 (Homo sapiens (Human), UniProt Q9H4B4); test: Kinase profiling, % inhibition at 1.0 μM; format: biochemical; conditions: compound 1.0 μM; read-out: Inhibitory activity at 1.0 μM (%), PLK3
Procedure: [The source words this procedure for another target and says it was used here with some conditions changed.] as §1

Tie-2 = Tie-2 (Homo sapiens (Human), UniProt Q02763); test: Kinase profiling, % inhibition at 1.0 μM; format: biochemical; conditions: compound 1.0 μM; read-out: Inhibitory activity at 1.0 μM (%), Tie-2
Procedure: [The source words this procedure for another target and says it was used here with some conditions changed.] as §1

VEGFR1 = VEGFR1 (Homo sapiens (Human), UniProt P17948); test: Kinase profiling, % inhibition at 1.0 μM; format: biochemical; conditions: compound 1.0 μM; read-out: Inhibitory activity at 1.0 μM (%), VEGFR1
Procedure: [The source words this procedure for another target and says it was used here with some conditions changed.] as §1

c-Kit = c-Kit (Homo sapiens (Human), UniProt P10721); test: Kinase profiling, % inhibition at 1.0 μM; format: biochemical; conditions: compound 1.0 μM; read-out: Inhibitory activity at 1.0 μM (%), c-Kit
Procedure: [The source words this procedure for another target and says it was used here with some conditions changed.] as §1

Aurora A = Aurora A (Homo sapiens (Human), UniProt O14965); test: Kinase profiling, % inhibition at 1.0 μM; format: biochemical; conditions: compound 1.0 μM; read-out: Inhibitory activity at 1.0 μM (%), Aurora A
Abl = Abl (Homo sapiens (Human), UniProt P00519); test: Kinase profiling, IC50; format: biochemical; conditions: read-out: Inhibitory activity (IC50, nM), Abl
Procedure: [The source words this procedure for another target and reports this target under the same test.] as §1

B-Raf (V600E) = B-Raf (V600E) (Homo sapiens (Human), UniProt P15056, V600E); test: Kinase profiling, IC50; format: biochemical; conditions: read-out: Inhibitory activity (IC50, nM), B-Raf (V600E)
Procedure: as §1

B-Raf (WT) = B-Raf (WT) (Homo sapiens (Human), UniProt P15056); test: Kinase profiling, IC50; format: biochemical; conditions: read-out: Inhibitory activity (IC50, nM), B-Raf (WT)
Procedure: as §1

EGFR = EGFR (Homo sapiens (Human), UniProt P00533); test: Kinase profiling, IC50; format: biochemical; conditions: read-out: Inhibitory activity (IC50, nM), EGFR
Procedure: [The source words this procedure for another target and reports this target under the same test.] as §1

FGFR-1 = FGFR-1 (Homo sapiens (Human), UniProt P11362); test: Kinase profiling, IC50; format: biochemical; conditions: read-out: Inhibitory activity (IC50, nM), FGFR-1
Procedure: [The source words this procedure for another target and reports this target under the same test.] as §1

FGFR-2 = FGFR-2 (Homo sapiens (Human), UniProt P21802); test: Kinase profiling, IC50; format: biochemical; conditions: read-out: Inhibitory activity (IC50, nM), FGFR-2
Procedure: [The source words this procedure for another target and reports this target under the same test.] as §1

FLT-3 = FLT-3 (Homo sapiens (Human), UniProt P36888); test: Kinase profiling, IC50; format: biochemical; conditions: read-out: Inhibitory activity (IC50, nM), FLT-3
Procedure: [The source words this procedure for another target and reports this target under the same test.] as §1

Her-2 = Her-2 (Homo sapiens (Human), UniProt P04626); test: Kinase profiling, IC50; format: biochemical; conditions: read-out: Inhibitory activity (IC50, nM), Her-2
Procedure: [The source words this procedure for another target and reports this target under the same test.] as §1

IGF-1R = IGF-1R (Homo sapiens (Human), UniProt P08069); test: Kinase profiling, IC50; format: biochemical; conditions: read-out: Inhibitory activity (IC50, nM), IGF-1R
Procedure: [The source words this procedure for another target and reports this target under the same test.] as §1

PDGFR-α = PDGFR-α (Homo sapiens (Human), UniProt P16234); test: Kinase profiling, IC50; format: biochemical; conditions: read-out: Inhibitory activity (IC50, nM), PDGFR-α
Procedure: [The source words this procedure for another target and reports this target under the same test.] as §1

PDGFR-β = PDGFR-β (Homo sapiens (Human), UniProt P09619); test: Kinase profiling, IC50; format: biochemical; conditions: read-out: Inhibitory activity (IC50, nM), PDGFR-β
Procedure: [The source words this procedure for another target and reports this target under the same test.] as §1

Src = Src (Homo sapiens (Human), UniProt P12931); test: Kinase profiling, IC50; format: biochemical; conditions: read-out: Inhibitory activity (IC50, nM), Src
Procedure: [The source words this procedure for another target and reports this target under the same test.] as §1

VEGFR-2 = VEGFR-2 (Homo sapiens (Human), UniProt P35968); test: Kinase profiling, IC50; format: biochemical; conditions: read-out: Inhibitory activity (IC50, nM), VEGFR-2
Procedure: [The source words this procedure for another target and reports this target under the same test.] as §1

[1] = system: HepG2 cell lines (hepatoma carcinoma cell); test: Inhibition on cell proliferation of HepG2 (SRB assay); format: cell-based; conditions: Homo sapiens, 72 hours treatment, SRB staining, read-out: Inhibitory activities against HepG2 (IC50)
Procedure: HepG2 cell lines (ATCC #HB-8065™) were obtained from ATCC (American type culture collection; Rockville, Md.). HepG2 cell lines were incubated in a MEM medium supplemented with 10% FBS (Gibco) and 1% penicillin/streptomycin (Gibco) under 37° C., 5% CO2 and 95% air. The carcinoma cells grown on the growth medium were transferred into a 96-well plate at a density of 5,000 cells/well (HepG2), and cultured for 18 hours or more. The cells were treated with 10 μM˜0.1 nM of the test compounds, and cultured for 72 hours. Subsequently, the cells were fixed with 10% TCA (trichloroacetic acid) and stained with SRB (sulforhodamine B), and absorbance values were measured at 540 nm. Then, IC50 values, i.e., the concentration of a compound to cause 50% reduction in proliferation of cancer cells, were calculated therefrom. The growth rates of cancer cells were calculated by Equation 1 or 2. [(Ti−Tz)/(C−Tz)]×100 (in case Ti>Tz) [Equation 1] [(Ti−Tz)/Tz]×100 (in case Ti<Tz) [Equation 2]
In Equations 1 and 2, ‘Tz’ refers to a the absorbance value measured in the cells just before the application of the test compound. ‘C’ refers to the absorbance value measured in the […], and ‘Ti’ refers to the absorbance value measured in the cells treated with the test compounds.
IC50 value is the concentration of the test compound when the value of Equation 1 is 50, which indicates the concentration of the test compound needed to reduce the growth of cancer cells to 50%. On each measurement, the test compounds were compared with a reference.

Chain of C-Raf (P04049 whole entry Y340D/Y341D): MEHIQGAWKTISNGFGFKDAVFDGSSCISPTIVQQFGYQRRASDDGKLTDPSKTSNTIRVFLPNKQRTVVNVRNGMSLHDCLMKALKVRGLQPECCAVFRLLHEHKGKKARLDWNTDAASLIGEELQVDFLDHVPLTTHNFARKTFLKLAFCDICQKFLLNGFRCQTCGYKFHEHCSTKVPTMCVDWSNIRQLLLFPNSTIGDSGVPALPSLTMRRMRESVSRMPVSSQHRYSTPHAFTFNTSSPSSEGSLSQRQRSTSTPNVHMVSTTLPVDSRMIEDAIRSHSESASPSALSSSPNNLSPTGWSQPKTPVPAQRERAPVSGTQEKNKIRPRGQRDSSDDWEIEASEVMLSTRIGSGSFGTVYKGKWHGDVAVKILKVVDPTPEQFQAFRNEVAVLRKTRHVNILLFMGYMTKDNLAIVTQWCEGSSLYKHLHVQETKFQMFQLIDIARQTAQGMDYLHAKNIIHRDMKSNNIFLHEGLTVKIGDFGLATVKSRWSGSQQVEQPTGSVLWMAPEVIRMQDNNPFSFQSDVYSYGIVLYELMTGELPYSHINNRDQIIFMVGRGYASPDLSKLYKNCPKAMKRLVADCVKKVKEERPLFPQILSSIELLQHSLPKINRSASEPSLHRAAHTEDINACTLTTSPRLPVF
Chain of FGFR4 (P22455 22-802): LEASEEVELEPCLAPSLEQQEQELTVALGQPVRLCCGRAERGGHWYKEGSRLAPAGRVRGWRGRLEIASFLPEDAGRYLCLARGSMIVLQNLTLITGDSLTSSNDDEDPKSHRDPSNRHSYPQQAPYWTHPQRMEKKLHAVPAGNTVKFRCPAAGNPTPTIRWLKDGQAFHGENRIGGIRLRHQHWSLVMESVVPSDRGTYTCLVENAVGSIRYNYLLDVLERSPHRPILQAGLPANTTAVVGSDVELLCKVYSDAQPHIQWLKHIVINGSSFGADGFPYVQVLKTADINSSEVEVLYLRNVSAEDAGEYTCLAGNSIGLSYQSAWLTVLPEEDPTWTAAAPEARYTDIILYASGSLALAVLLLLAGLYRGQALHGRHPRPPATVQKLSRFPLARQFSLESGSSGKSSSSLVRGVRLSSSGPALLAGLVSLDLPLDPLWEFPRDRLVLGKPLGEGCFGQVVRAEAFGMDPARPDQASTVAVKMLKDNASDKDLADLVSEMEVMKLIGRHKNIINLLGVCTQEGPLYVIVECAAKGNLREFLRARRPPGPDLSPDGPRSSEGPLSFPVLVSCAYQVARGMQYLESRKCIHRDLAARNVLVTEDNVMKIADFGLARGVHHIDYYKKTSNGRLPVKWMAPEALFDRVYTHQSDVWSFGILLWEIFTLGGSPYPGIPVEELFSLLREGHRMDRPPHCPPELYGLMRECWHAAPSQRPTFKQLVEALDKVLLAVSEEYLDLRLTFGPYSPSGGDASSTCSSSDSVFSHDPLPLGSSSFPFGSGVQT
Chain of Aurora A (O14965 whole entry): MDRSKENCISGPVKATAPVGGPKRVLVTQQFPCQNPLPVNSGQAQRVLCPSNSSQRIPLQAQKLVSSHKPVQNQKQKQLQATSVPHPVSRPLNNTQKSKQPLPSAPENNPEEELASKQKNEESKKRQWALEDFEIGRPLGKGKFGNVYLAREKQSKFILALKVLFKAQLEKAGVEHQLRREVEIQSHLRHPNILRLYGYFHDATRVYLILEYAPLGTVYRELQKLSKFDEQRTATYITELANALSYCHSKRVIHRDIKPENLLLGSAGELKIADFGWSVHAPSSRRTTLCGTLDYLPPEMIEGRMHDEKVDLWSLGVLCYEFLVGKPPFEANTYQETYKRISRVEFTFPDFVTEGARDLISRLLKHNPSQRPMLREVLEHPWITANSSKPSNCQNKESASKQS
Chain of Src (P12931 whole entry, looked up): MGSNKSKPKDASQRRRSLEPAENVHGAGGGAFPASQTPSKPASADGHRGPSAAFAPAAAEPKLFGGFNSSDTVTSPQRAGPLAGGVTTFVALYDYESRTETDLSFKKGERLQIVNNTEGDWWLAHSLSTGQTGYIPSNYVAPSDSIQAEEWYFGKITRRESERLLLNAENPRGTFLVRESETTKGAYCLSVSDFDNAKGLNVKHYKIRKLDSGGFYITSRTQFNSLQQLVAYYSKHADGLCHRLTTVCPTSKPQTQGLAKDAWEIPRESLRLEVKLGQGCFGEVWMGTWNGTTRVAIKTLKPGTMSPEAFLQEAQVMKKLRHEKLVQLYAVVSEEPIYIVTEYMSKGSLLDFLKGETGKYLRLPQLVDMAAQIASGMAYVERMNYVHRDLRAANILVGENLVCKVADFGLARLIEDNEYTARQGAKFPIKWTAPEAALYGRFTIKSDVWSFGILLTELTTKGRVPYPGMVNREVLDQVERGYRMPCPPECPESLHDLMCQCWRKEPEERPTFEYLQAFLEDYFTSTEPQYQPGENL
Chain of PDGFR-α (P16234 24-1089): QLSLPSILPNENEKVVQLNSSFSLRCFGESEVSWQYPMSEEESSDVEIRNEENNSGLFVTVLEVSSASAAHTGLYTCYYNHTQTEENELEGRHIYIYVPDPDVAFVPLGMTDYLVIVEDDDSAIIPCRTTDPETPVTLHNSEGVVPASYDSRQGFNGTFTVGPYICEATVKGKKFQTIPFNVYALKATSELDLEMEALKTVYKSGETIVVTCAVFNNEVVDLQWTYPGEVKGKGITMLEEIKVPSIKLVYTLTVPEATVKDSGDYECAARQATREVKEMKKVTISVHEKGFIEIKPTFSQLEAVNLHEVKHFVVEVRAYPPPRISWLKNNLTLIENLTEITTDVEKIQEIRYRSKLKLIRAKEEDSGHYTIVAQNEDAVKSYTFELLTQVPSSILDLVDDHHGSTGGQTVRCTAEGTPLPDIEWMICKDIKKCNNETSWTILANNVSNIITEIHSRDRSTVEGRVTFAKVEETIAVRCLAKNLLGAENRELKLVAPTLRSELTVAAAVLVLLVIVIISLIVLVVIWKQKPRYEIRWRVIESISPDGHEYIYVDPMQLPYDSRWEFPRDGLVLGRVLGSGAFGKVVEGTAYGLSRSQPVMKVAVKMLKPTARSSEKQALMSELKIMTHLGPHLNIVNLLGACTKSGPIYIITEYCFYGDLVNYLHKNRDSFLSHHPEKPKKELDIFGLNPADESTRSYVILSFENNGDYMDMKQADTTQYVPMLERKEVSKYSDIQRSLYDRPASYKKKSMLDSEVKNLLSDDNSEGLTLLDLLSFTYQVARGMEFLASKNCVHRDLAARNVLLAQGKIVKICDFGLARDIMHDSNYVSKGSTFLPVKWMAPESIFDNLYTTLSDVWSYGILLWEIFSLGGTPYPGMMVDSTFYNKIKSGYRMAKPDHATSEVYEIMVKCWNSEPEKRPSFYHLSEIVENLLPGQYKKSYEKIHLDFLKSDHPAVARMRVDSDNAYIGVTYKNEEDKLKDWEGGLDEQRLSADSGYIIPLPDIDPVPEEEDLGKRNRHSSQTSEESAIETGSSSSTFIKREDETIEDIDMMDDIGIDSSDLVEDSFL
Chain of Aurora B (Q96GD4 whole entry): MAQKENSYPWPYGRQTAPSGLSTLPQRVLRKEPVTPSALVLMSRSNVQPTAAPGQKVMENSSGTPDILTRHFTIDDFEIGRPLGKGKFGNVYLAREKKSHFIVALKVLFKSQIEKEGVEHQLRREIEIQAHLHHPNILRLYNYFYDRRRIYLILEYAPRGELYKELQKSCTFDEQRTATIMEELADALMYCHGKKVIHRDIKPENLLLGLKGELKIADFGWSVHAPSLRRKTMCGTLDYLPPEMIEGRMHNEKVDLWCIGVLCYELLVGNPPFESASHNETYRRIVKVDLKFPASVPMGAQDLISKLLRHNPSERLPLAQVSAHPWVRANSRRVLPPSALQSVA
Chain of Her-2 (P04626 23-1255): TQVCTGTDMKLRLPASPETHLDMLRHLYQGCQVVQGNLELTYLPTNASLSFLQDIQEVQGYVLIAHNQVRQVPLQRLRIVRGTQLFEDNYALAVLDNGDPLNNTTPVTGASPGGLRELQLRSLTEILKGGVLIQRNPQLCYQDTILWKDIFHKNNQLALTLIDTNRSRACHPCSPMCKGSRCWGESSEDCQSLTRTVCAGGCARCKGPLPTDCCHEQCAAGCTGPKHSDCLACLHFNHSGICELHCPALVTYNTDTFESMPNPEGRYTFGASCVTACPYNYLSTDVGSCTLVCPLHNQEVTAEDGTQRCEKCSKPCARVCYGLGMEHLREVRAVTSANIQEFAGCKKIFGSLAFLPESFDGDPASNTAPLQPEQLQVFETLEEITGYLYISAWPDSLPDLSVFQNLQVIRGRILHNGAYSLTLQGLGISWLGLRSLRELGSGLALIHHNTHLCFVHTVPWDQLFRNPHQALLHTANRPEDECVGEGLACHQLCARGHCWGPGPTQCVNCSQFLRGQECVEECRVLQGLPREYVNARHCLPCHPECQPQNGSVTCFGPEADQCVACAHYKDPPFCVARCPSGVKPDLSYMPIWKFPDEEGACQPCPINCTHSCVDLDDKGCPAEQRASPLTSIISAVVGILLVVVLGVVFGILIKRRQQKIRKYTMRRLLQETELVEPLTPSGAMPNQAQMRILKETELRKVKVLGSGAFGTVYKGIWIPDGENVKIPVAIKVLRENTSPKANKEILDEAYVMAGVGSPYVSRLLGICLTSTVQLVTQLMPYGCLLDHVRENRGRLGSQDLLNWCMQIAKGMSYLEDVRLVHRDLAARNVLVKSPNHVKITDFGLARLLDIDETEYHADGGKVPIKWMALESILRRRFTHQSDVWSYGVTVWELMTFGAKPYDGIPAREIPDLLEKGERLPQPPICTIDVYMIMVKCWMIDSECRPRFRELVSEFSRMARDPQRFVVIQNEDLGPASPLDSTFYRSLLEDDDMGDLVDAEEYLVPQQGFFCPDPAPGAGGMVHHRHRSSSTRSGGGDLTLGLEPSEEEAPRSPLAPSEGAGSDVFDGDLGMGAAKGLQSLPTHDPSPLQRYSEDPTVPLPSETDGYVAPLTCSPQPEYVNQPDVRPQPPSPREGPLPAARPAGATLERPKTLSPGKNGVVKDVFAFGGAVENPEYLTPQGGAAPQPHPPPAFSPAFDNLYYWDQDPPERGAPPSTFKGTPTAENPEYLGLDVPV

Compound: Cc1ccc(C(=O)Nc2cccc(C(F)(F)F)c2)cc1NC(=O)c1cccc2c(NC(C)(C)C)nccc12 [Example 2, 1-(t-butylamino)-N-(2-methyl-5-((3-(trifluoromethyl)phenyl)carbamoyl)phenyl)isoquinoline-5-carboxamide]
- IC50 (C-Raf): 11 nM
- IC50 [1]: 365 nM

Compound: Cc1ccc(C(=O)Nc2ccccc2)cc1NC(=O)c1cccc2c(NC(C)(C)C)nccc12 [Example 8, 1-(t-butylamino)-N-(2-methyl-5-(phenylcarbamoyl)phenyl)isoquinoline-5-carboxamide]
- IC50 (C-Raf): 20.5 nM

Compound: Cc1cn(-c2cc(NC(=O)c3ccc(C)c(NC(=O)c4cccc5c(N)nccc45)c3)cc(C(F)(F)F)c2)cn1 [Example 11, 1-amino-N-(2-methyl-5-((3-(4-methyl-1H-imidazol-1-yl)-5-(trifluoromethyl)phenyl)carbamoyl)phenyl)isoquinoline-5-carboxamide]
- IC50 (C-Raf): 94.8 nM

Compound: Cc1ccc(NC(=O)Nc2cccc(C(F)(F)F)c2)cc1NC(=O)c1cccc2c(N)nccc12 [Example 14, 1-amino-N-(2-methyl-5-(3-(3-(trifluoromethyl)phenyl)ureido)phenyl)isoquinoline-5-carboxamide]
- IC50 (C-Raf): 108 nM

Compound: CCCS(=O)(=O)Nc1ccc(F)c(C(=O)c2c[nH]c3ncc(-c4ccc(Cl)cc4)cc23)c1F [reference, Vemurafenib, reference compound]
- IC50 [1]: > 10000 nM

Continued, values first:

- IC50 (C-Raf): 6.1 nM
- inhibition at 1 µM (CDK1): 9%
- inhibition at 1 µM (CDK2): 6%
- inhibition at 1 µM (PLK1): -1%
- inhibition at 1 µM (Aurora B): 23%
- inhibition at 1 µM (FGFR4): 7%
- inhibition at 1 µM (PLK2): 7%
- inhibition at 1 µM (PLK3): 9%
- inhibition at 1 µM (Tie-2): 20%
- inhibition at 1 µM (VEGFR1): 9%
- inhibition at 1 µM (c-Kit): 34%
- inhibition at 1 µM (Aurora A): 62%
- IC50 (Abl): > 2500 nM
- IC50 (B-Raf (V600E)): 61 nM
- IC50 (B-Raf (WT)): 87 nM
- IC50 (EGFR): > 2500 nM
- IC50 (FGFR-1): > 2500 nM
- IC50 (FGFR-2): > 2500 nM
- IC50 (FLT-3): > 2500 nM
- IC50 (Her-2): > 2500 nM
- IC50 (IGF-1R): > 2500 nM
- IC50 (PDGFR-α): 393 nM
- IC50 (PDGFR-β): 66 nM
- IC50 (Src): > 2500 nM
- IC50 (VEGFR-2): 261 nM
- IC50 [1]: 210 nM
Compound: Cc1ccc(NC(=O)c2cccc(C(F)(F)F)c2)cc1NC(=O)c1cccc2c(N)nccc12 [Example 1, 1-amino-N-(2-methyl-5-(3-(trifluoromethyl)benzamido)phenyl)isoquinoline-5-carboxamide]

- IC50 (C-Raf): 2.8 nM
- IC50 [1]: 131 nM
Compound: Cc1ccc(C(=O)Nc2cccc(C(F)(F)F)c2)cc1NC(=O)c1cccc2c(N)nccc12 [Example 3, 1-amino-N-(2-methyl-5-((3-(trifluoromethyl)phenyl)carbamoyl)phenyl)isoquinoline-5-carboxamide]

- IC50 (C-Raf): 10.7 nM
Compound: Cc1ccc(C(=O)Nc2ccc(Cl)c(C(F)(F)F)c2)cc1NC(=O)c1cccc2c(N)nccc12 [Example 4, 1-amino-N-(5-((4-chloro-3-(trifluoromethyl)phenyl)carbamoyl)-2-methylphenyl)isoquinoline-5-carboxamide]

- IC50 (C-Raf): 6.4 nM
Compound: CCN1CCN(Cc2ccc(NC(=O)c3ccc(C)c(NC(=O)c4cccc5c(NC(C)(C)C)nccc45)c3)cc2C(F)(F)F)CC1 [Example 6, 1-(t-butylamino)-N-(5-((4-((4-ethylpiperazin-1-yl)methyl)-3-(trifluoromethyl)phenyl)carbamoyl)-2-methylphenyl)isoquinoline-5-carboxamide]
